Source: patent US20050222263A1, “Compositions against stress-related diseases and methods for treating stress-related diseases” (Ajinomoto Co., Inc., priority 2002, published 2005)

Experiments:
[1] = test system: model for gastric ulcer caused by water immersion under restraint; test: water-immersion restraint stress gastric ulcer model, intragastric hemorrhage; type: in vivo, Wistar male rats; details: in powdered feed; paroxetine 298 mg/kg diet, lysine hydrochloride 13.3 g/kg diet, arginine 13.3 g/kg diet; water-immersion restraint stress 5 hours
Procedure: A widely used model for gastric ulcer caused by water immersion under restraint was used. That is, rats were placed in a stress cage and immersed in water to the chest for 5 hours (at a temperature of 22-25° C.). The stomach was removed and the degree of intragastric hemorrhage was observed and the hemorrhage area was calculated using an NHI image software.
The test compound was evaluated as follows. Five-week-old Wistar male rats were divided into three groups. The first group was bred with a normal powdered feed; the second group with a powdered feed to which was added a selective serotonin reuptake inhibitor (SSRI) (paroxetine; Glaxo-SmithKline; 298 mg/kg diet) alone; and the third group with a powdered feed containing the same amount of the same SSRI and lysine hydrochloride (13.3 g/kg diet) to which was additionally added arginine (13.3 g/kg diet). Each group consisted of 10 animals. Rats could freely feed before they reached 14 weeks of age. Thereafter, no feed and water were given for 2 days, and on day 3, all of the rats were subjected to the water-immersion restraint stress for 5 hours.

[2] = test system: animal model of irritable bowel syndrome (wrap-restraint stress); test: wrap-restraint stress irritable bowel syndrome model, amount of feces excreted; type: in vivo, Wistar male rats; details: oral, 40 minutes before wrap-restraint stress; lysine hydrochloride 1 g/kg, alprazolam 10 mg/kg; vs control
Procedure: An animal model of irritable bowel syndrome was prepared according to the method as described by Williams et al. (Williams, C. L., Villar, R. G., Peterson, J. M., Burks, T. F., “Stress-induced changes in intestinal transit in the rat: a model for irritable bowel syndrome,” Gastroenterol., vol. 94, pp. 611-621 (1988)). That is, a cotton tape was placed around the anterior limbs of seven-week-old Wistar male rats, the rats were kept in a bracket cage, and then the amount of feces excreted during 2 hours was measured. A test compound was orally administered 40 minutes before starting the wrap-restraint stress. The following groups were examined: 1) control group; 2) a group to which lysine hydrochloride (1 g/kg) alone was given; 3) a group to which a minor tranquilizer alprazolam (10 mg/kg; Takeda Chem. Ind.) alone was given; and 4) a combination group to which lysine hydrochloride (1 g/kg) and alprazolam (10 mg/kg) were given. Each group consisted of 10 animals.

Fc1ccc([C@@H]2CCNC[C@H]2COc2ccc3c(c2)OCO3)cc1 [SSRI, paroxetine]
intragastric hemorrhage (hemorrhage area) [1]: significantly exacerbated the intragastric hemorrhage

Cl.NCCCC[C@H](N)C(=O)O [lysine hydrochloride]
effect on stress-induced increase of amount of feces excreted during 2 hours [2]: no clear effect was observed

Cc1nnc2n1-c1ccc(Cl)cc1C(c1ccccc1)=NC2 [alprazolam]
effect on stress-induced increase of amount of feces excreted during 2 hours [2]: no clear effect was observed
